Laboratory results taken from US9573961B2, “Inhibitors of the renal outer medullary potassium channel” (Merck Sharp & Dohme Corp., priority 2012, dated 2017).
pIC50: −log10 of the molar value. Like-named read-outs stand apart in the source and are kept apart here.

What was measured:
hROMK (hKir1.1) = hROMK (hKir1.1) (Homo sapiens (Human), UniProt P48048); experiment: Thallium Flux Assay (ROMK channel functional thallium flux, FLIPR-Tetra); assay type: cell-based; settings: read-out: Thallium Flux IC50
Chain of hROMK (hKir1.1) (P48048 whole entry): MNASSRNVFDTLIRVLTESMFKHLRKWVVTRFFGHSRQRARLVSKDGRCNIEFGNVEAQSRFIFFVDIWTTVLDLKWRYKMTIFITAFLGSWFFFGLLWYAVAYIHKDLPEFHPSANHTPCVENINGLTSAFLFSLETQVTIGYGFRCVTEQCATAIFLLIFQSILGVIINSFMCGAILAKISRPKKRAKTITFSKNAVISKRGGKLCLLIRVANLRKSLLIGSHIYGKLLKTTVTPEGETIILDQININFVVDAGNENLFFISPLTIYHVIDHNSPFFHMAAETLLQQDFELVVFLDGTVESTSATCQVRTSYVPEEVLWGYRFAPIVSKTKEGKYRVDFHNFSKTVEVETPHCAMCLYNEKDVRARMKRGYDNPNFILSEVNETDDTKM
In short: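 HEK293 cells stably expressing hROMK loaded with FluxOR dye for 90 min, then incubated with compound for 30 min at 23-25 °C. Normalized to a 3 μM standard ROMK inhibitor as % fluorescence change.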

Kir1.1 (ROMK1) = Kir1.1 (ROMK1) (Homo sapiens (Human), UniProt P48048); experiment: Electrophysiology Assay (whole cell voltage clamp, IonWorks Quattro); assay type: cell-based; settings: block during voltage step to 0 mV
Chain of Kir1.1 (ROMK1) (P48048 whole entry): as above
In short: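 CHO cells stably expressing the channel, induced overnight with 1 mM sodium butyrate, were recorded in amphotericin-perforated patch mode. The test pulse was a 100 ms step to 0 mV from −70 mV, then a −70 to +70 mV ramp, applied before and after a 6 min compound incubation. Current amplitudes were compared.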

[1] = HEK293 cells stably expressing hROMK (hKir1.1)
[2] = Electrophysiology IC50, Chinese hamster ovary cells stably expressing Kir1.1
[3] = Chinese hamster ovary cells stably expressing Kir1.1, read-out: Electrophysiology IC50

| Structure (SMILES) | pIC50 (hROMK (hKir1.1); [1]) | pIC50 (Kir1.1 (ROMK1); [2]) | pIC50 (hROMK (hKir1.1)) | pIC50 (Kir1.1 (ROMK1); [3]) |
| --- | --- | --- | --- | --- |
| Cc1c([C@@H]2CN3CCN(C(=O)Cc4ccc(-n5cnnn5)cc4)C[C@H]3CO2)ccc2c1COC2=O [Example 1A, 4-methyl-5-[(3R,9aS)-8-{[4-(1H-tetrazol-1-yl)phenyl]acetyl}octahydropyrazino[2,1-c][1,4]oxazin-3-yl]-2-benzofuran-1(3H)-one] | 7.52 | 7.00 | – | – |
| COc1c([C@@H]2CN3CCN(C(=O)Cc4ccc(-n5cnnn5)cc4)C[C@H]3CO2)ccc(F)c1C#N [Example 32, 6-fluoro-2-methoxy-3-[(3R,9aS)-8-{[4-(1H-tetrazol-1-yl)phenyl]acetyl}octahydropyrazino[2,1-c][1,4]oxazin-3-yl]benzonitrile] | – | 6.85 | 7.00 | – |
| Cc1c([C@@H]2CN3CCN(C(=O)Cc4ccc(-n5cnnn5)cc4)C[C@@H]3CO2)ccc2c1COC2=O [Example 13, 4-methyl-5-[(3R,9aR)-8-{[4-(1H-tetrazol-1-yl)phenyl]acetyl}octahydropyrazino[2,1-c][1,4]oxazin-3-yl]-2-benzofuran-1(3H)-one] | 6.92 | 6.82 | – | – |
| COc1ccc([C@@H]2CN3CCN(C(=O)Cc4ccc(-n5cnnn5)cc4)C[C@H]3CO2)c(C)c1C#N [Example 26, 6-methoxy-2-methyl-3-[(3R,9aS)-8-{[4-(1H-tetrazol-1-yl)phenyl]acetyl}octahydropyrazino[2,1-c][1,4]oxazin-3-yl]benzonitrile] | 6.85 | – | – | 6.59 |
| Cc1c(CC(=O)N2CCN3C[C@H](c4ccc(F)c(C#N)c4C)OC[C@H]3C2)cccc1-n1cnnn1 [Example 61, 6-fluoro-2-methyl-3-[(3S,9aR)-8-{[2-methyl-3-(1H-tetrazol-1-yl)phenyl]acetyl}octahydropyrazino[2,1-c][1,4]oxazin-3-yl]benzonitrile] | 6.47 | – | – | 6.62 |
| O=C1OCc2c1ccc([C@H]1CN3CCN(C(=O)Cc4ccc(-n5cnnn5)cc4)C[C@H]3CO1)c2Cl [Example 21, 4-chloro-5-[(3S,9aS)-8-{[4-(1H-tetrazol-1-yl)phenyl]acetyl}octahydropyrazino[2,1-c][1,4]oxazin-3-yl]-2-benzofuran-1(3H)-one] | 7.00 | 7.00 | – | – |
| COc1cc([C@@H]2CN3CCN(C(=O)C4CCc5cc(-n6cnnn6)ccc54)C[C@@H]3CO2)ccc1C#N (stereo partly drawn) [Example 64, 2-methoxy-4-[(3R,9aR)-8-{[5-(1H-tetrazol-1-yl)-2,3-dihydro-1H-inden-1-yl]carbonyl}octahydropyrazino[2,1-c][1,4]oxazin-3-yl]benzonitrile] | 6.57 | – | – | 6.68 |
| COc1cc(CC(=O)N2CCN3C[C@@H](c4ccc5c(c4)CCOC5=O)OC[C@@H]3C2)ccc1C#N [Example 29, 2-methoxy-4-{2-oxo-2-[(3R,9aS)-3-(1-oxo-3,4-dihydro-1H-isochromen-6-yl)hexahydropyrazino[2,1-c][1,4]oxazin-8(1H)-yl]ethyl}benzonitrile] | 6.52 | 6.89 | – | – |
| COc1cc(F)c([C@@H]2CN3CCN(C(=O)Cc4ccc(-n5cnnn5)cc4)C[C@H]3CO2)cc1C#N [Example 27, 4-fluoro-2-methoxy-5-[(3R,9aS)-8-{[4-(1H-tetrazol-1-yl)phenyl]acetyl}octahydropyrazino[2,1-c][1,4]oxazin-3-yl]benzonitrile] | 6.74 | 6.41 | – | – |
| COc1cc([C@@H]2CN3CCN(C(=O)C4CCc5cc(-n6cnnn6)ccc54)C[C@H]3CO2)ccc1C#N (stereo partly drawn) [Example 65, 2-methoxy-4-[(3R,9aS)-8-{[5-(1H-tetrazol-1-yl)-2,3-dihydro-1H-inden-1-yl]carbonyl}octahydropyrazino[2,1-c][1,4]oxazin-3-yl]benzonitrile] | 6.40 | – | – | 6.46 |
